Experimental findings from the supplement of paper PMC11208160 are described below.
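Further: IS621 bridge recombinase in Escherichia coli cells against a fixed T5 target plasmid.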

A short description of the series: recombinant UMI read abundance after kanamycin selection (control-corrected) (log10(CPM+1)); higher = more efficient recombination; extreme values may be limits of the assay; sequences stand for … in AGTGCAGAGAAAATCGGCCAGTTTTCTCTGCCTGCAGTCCGCATGCCGTGGGACCCCTTGGGTTCTAACCTGTTGCCTAGATTTATGCAGCGGACTGCCTTTCTCCCAAAGTGATAAACCGG…AGGTTGGTTTCACT; site = the 11-nt donor. How it is done:
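Pooled E. coli donor-specificity screen for the IS621 bridge recombinase. Each library member carries a reprogrammed 11-nt donor and a full-length LE bridge RNA expressed in cis from the natural promoter, with a paired donor-binding loop (8-nt LDG + 4-nt RDG) and a target-binding loop fixed to T5. It is co-electroporated with a T5 target plasmid; recombinase is induced with 0.07 mM IPTG and recombinants are selected on kanamycin. UMIs are counted as CPM, averaged over two biological replicates and corrected by the unselected control. Molecule = full bridge RNA written as DNA, built from the T5 scaffold: LDG = donor specificity nt 1-8, RDG = reverse complement of nt 8-11.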
In the case of “AGCACGACATGGACCGGTTTTCCCGGTAATCCGTATTTGTC (site AGCACGACTGA)”, the “recombinant UMI read abundance (log10)” value was found to be 1.47. As for “AGCATAGCATGGACCGGTTTTCCCGGTAATCCGTATTTGTT (site AGCATAGCTAA)”, the figure is 1.99; as for “AGCATAGCATGGACCGGTTTTCCCGGTAATCCGTATTTGTT (site AGCCTAGCTAA)”, 0.0149; as for “AGCATAGCATGGACCGGTTTTCCCGGTAATCCGTATTTGTT (site AGCGTAGCTAA)”, 0.0357. As for “AGCATAGCATGGACCGGTTTTCCCGGTAATCCGTATTTGTT (site AGCTTAGCTAA)”, the figure is 0.00966. As for “AGCCAAACATGGACCGGTTTTCCCGGTAATCCGTATTTGAG (site AGCCAAACTCT)”, the figure is 1.88; as for “AGCCAATCATGGACCGGTTTTCCCGGTAATCCGTATTTGGA (site AGCCAATCTTC)”, 1.67; as for “AGCCATTCATGGACCGGTTTTCCCGGTAATCCGTATTTGAC (site AGCCATTCTGT)”, 2.1. On to “AGCCATTCATGGACCGGTTTTCCCGGTAATCCGTATTTGAC (site AGCCCTTCTGT)”, for which the “recombinant UMI read abundance (log10)” value was 0. For “AGCCATTCATGGACCGGTTTTCCCGGTAATCCGTATTTGAC (site AGCCGTTCTGT)”, the “recombinant UMI read abundance (log10)” value came out at 0. As for “AGCCATTCATGGACCGGTTTTCCCGGTAATCCGTATTTGAC (site AGCCTTTCTGT)”, the “recombinant UMI read abundance (log10)” value worked out at 0. As for “AGCCCATCATGGACCGGTTTTCCCGGTAATCCGTATTTGCT (site AGCCCATCTAG)”, the figure is 1.83; as for “AGCCCTGCATGGACCGGTTTTCCCGGTAATCCGTATTTGGG (site AGCCCTGCTCC)”, 0.336; as for “AGCCCTTCATGGACCGGTTTTCCCGGTAATCCGTATTTGAC (site AGCCATTCTGT)”, 0. The same measure for “AGCCCTTCATGGACCGGTTTTCCCGGTAATCCGTATTTGAC (site AGCCCTTCTGT)”: 2.11. Turning to “AGCCCTTCATGGACCGGTTTTCCCGGTAATCCGTATTTGAC (site AGCCGTTCTGT)”, the “recombinant UMI read abundance (log10)” value stood at 0.

Turning to “AGCCCTTCATGGACCGGTTTTCCCGGTAATCCGTATTTGAC (site AGCCTTTCTGT)”, the “recombinant UMI read abundance (log10)” value was determined as 0.00743. As for “AGCCTAGCATGGACCGGTTTTCCCGGTAATCCGTATTTGGT (site AGCCTAGCTAA)”, the figure is 0.168; as for “AGCCTAGCATGGACCGGTTTTCCCGGTAATCCGTATTTGGT (site AGCCTAGCTAC)”, 0; as for “AGCCTAGCATGGACCGGTTTTCCCGGTAATCCGTATTTGGT (site AGCCTAGCTAG)”, 0.00404. The same measure for “AGCCTAGCATGGACCGGTTTTCCCGGTAATCCGTATTTGGT (site AGCCTAGCTAT)”: 0.00284; for “AGCCTGGCATGGACCGGTTTTCCCGGTAATCCGTATTTGTT (site AGCCTAGCTAA)”: 0; for “AGCCTGGCATGGACCGGTTTTCCCGGTAATCCGTATTTGTT (site AGCCTCGCTAA)”: 0.0194. As for “AGCCTGGCATGGACCGGTTTTCCCGGTAATCCGTATTTGTT (site AGCCTGGCTAA)”, the figure is 0.0154; as for “AGCCTGGCATGGACCGGTTTTCCCGGTAATCCGTATTTGTT (site AGCCTTGCTAA)”, 0.0159. As to “AGCCTGTCATGGACCGGTTTTCCCGGTAATCCGTATTTGAC (site AGCCTATCTGT)”, the “recombinant UMI read abundance (log10)” value was 0. As to “AGCCTGTCATGGACCGGTTTTCCCGGTAATCCGTATTTGAC (site AGCCTCTCTGT)”, the “recombinant UMI read abundance (log10)” value was 0. For the sequence “AGCCTGTCATGGACCGGTTTTCCCGGTAATCCGTATTTGAC (site AGCCTGTCTGT)”, the “recombinant UMI read abundance (log10)” value came to 0. For “AGCCTGTCATGGACCGGTTTTCCCGGTAATCCGTATTTGAC (site AGCCTTTCTGT)”, the “recombinant UMI read abundance (log10)” value was determined as 0.

As for “AGCCTTCCATGGACCGGTTTTCCCGGTAATCCGTATTTGAC (site AGCCTTACTGT)”, the “recombinant UMI read abundance (log10)” value was 0. The same measure for “AGCCTTCCATGGACCGGTTTTCCCGGTAATCCGTATTTGAC (site AGCCTTCCTGT)”: 0.

Consider “AGCCTTCCATGGACCGGTTTTCCCGGTAATCCGTATTTGAC (site AGCCTTGCTGT)”, for which the “recombinant UMI read abundance (log10)” value was determined as 0. The same measure for “AGCCTTCCATGGACCGGTTTTCCCGGTAATCCGTATTTGAC (site AGCCTTTCTGT)”: 0; for “AGCCTTGCATGGACCGGTTTTCCCGGTAATCCGTATTTGTT (site AGCCTAGCTAA)”: 0.00391; for “AGCCTTGCATGGACCGGTTTTCCCGGTAATCCGTATTTGTT (site AGCCTCGCTAA)”: 0.0115. The same measure for “AGCCTTGCATGGACCGGTTTTCCCGGTAATCCGTATTTGTT (site AGCCTGGCTAA)”: 0.0183; for “AGCCTTGCATGGACCGGTTTTCCCGGTAATCCGTATTTGTT (site AGCCTTGCTAA)”: 0. As for “AGCCTTTCATGGACCGGTTTTCCCGGTAATCCGTATTTGAG (site AGCCTTTCTAT)”, the figure is 0; as for “AGCCTTTCATGGACCGGTTTTCCCGGTAATCCGTATTTGAG (site AGCCTTTCTCT)”, 0; as for “AGCCTTTCATGGACCGGTTTTCCCGGTAATCCGTATTTGAG (site AGCCTTTCTGT)”, 0. Consider “AGCCTTTCATGGACCGGTTTTCCCGGTAATCCGTATTTGAG (site AGCCTTTCTTT)”, for which the “recombinant UMI read abundance (log10)” value came out at 0.007.

In the case of “AGCGATACATGGACCGGTTTTCCCGGTAATCCGTATTTGAA (site AGCGATACTTT)”, the “recombinant UMI read abundance (log10)” value worked out at 1.65.

“AGCGTAACATGGACCGGTTTTCCCGGTAATCCGTATTTGAC (site AGCGTAACTGT)”: the “recombinant UMI read abundance (log10)” value came to 2.86. The same measure for “AGCGTAGCATGGACCGGTTTTCCCGGTAATCCGTATTTGCA (site AGCGTAGCTTG)”: 2.87; for “AGCGTAGCATGGACCGGTTTTCCCGGTAATCCGTATTTGTT (site AGCATAGCTAA)”: 0.838; for “AGCGTAGCATGGACCGGTTTTCCCGGTAATCCGTATTTGTT (site AGCCTAGCTAA)”: 0.0274.

As to “AGCGTAGCATGGACCGGTTTTCCCGGTAATCCGTATTTGTT (site AGCGTAGCTAA)”, the “recombinant UMI read abundance (log10)” value was determined as 1.33. As for “AGCGTAGCATGGACCGGTTTTCCCGGTAATCCGTATTTGTT (site AGCTTAGCTAA)”, the figure is 0.00472; as for “AGCGTGACATGGACCGGTTTTCCCGGTAATCCGTATTTGCC (site AGCGTGACTGG)”, 1.78.

On to “AGCGTTACATGGACCGGTTTTCCCGGTAATCCGTATTTGTA (site AGCGTTACTTA)”, for which the “recombinant UMI read abundance (log10)” value is 0.651. With “AGCTCAACATGGACCGGTTTTCCCGGTAATCCGTATTTGGG (site AGCTCAACTCC)”, the “recombinant UMI read abundance (log10)” value is 0. As for “AGCTCAACATGGACCGGTTTTCCCGGTAATCCGTATTTGGG (site AGCTCACCTCC)”, the figure is 0.

For “AGCTCAACATGGACCGGTTTTCCCGGTAATCCGTATTTGGG (site AGCTCAGCTCC)”, the “recombinant UMI read abundance (log10)” value came to 0.

For the sequence “AGCTCAACATGGACCGGTTTTCCCGGTAATCCGTATTTGGG (site AGCTCATCTCC)”, the “recombinant UMI read abundance (log10)” value amounted to 0. The same measure for “AGCTCAGCATGGACCGGTTTTCCCGGTAATCCGTATTTGGC (site AGCTCAGCTAC)”: 0.396. As for “AGCTCAGCATGGACCGGTTTTCCCGGTAATCCGTATTTGGC (site AGCTCAGCTCC)”, the figure is 0.00906; as for “AGCTCAGCATGGACCGGTTTTCCCGGTAATCCGTATTTGGC (site AGCTCAGCTGC)”, 2.19.

For the sequence “AGCTCAGCATGGACCGGTTTTCCCGGTAATCCGTATTTGGC (site AGCTCAGCTTC)”, the “recombinant UMI read abundance (log10)” value turned out to be 0.398. As to “AGCTCAGCATGGACCGGTTTTCCCGGTAATCCGTATTTGGG (site AACTCAGCTCC)”, the “recombinant UMI read abundance (log10)” value came to 0. The same measure for “AGCTCAGCATGGACCGGTTTTCCCGGTAATCCGTATTTGGG (site ACCTCAGCTCC)”: 0.026. As for “AGCTCAGCATGGACCGGTTTTCCCGGTAATCCGTATTTGGG (site AGATCAGCTCC)”, the figure is 0.0131; as for “AGCTCAGCATGGACCGGTTTTCCCGGTAATCCGTATTTGGG (site AGCACAGCTCC)”, 0.212. As to “AGCTCAGCATGGACCGGTTTTCCCGGTAATCCGTATTTGGG (site AGCCCAGCTCC)”, the “recombinant UMI read abundance (log10)” value was 0.263. As for “AGCTCAGCATGGACCGGTTTTCCCGGTAATCCGTATTTGGG (site AGCGCAGCTCC)”, the figure is 0.0219; as for “AGCTCAGCATGGACCGGTTTTCCCGGTAATCCGTATTTGGG (site AGCTAAGCTCC)”, 0.0351.
